What was measured:
Salmonella enterica = test: MIC, liquid culture dilution (single chelates and cross-dilution combinations); type: cell-based, Salmonella enterica subp. Enterica serovar enteritidis
Escherichia coli = test: as above; type: cell-based
Streptococcus agalactiae = test: MIC, liquid culture dilution; type: cell-based
Clostridium perfringens = type: cell-based
Staphylococcus aureus = test: MIC, liquid culture dilution; type: cell-based
[1] = tested on: Brachyspira hyodysenteriae; test: MIC (single chelates and combinations)
Saccharomyces cerevisiae = test: MIC, liquid culture dilution; type: cell-based
LACTIC ACID PRODUCERS = test: MIC, liquid culture dilution; type: cell-based

Molecule | Minimal inhibitory concentration (MIC) (Salmonella enterica) [ppm] | Minimal inhibitory concentration (MIC) (Escherichia coli) [ppm] | Minimal inhibitory concentration (MIC) (Streptococcus agalactiae) [ppm] | Minimal inhibitory concentration (MIC) (Clostridium perfringens) [ppm] | Minimal inhibitory concentration (MIC) (Staphylococcus aureus) [ppm] | Minimal inhibitory concentration (MIC) [1] [ppm] | Minimal inhibitory concentration (MIC) (Saccharomyces cerevisiae) [ppm] | Minimal inhibitory concentration (MIC) (LACTIC ACID PRODUCERS) [ppm]
Zn diammine aspartate | 184 | 92 |  |  |  |  |  | 
Zn asparaginate |  |  | 37 | 297 | 18 |  |  | 
O=C(O)c1ccccc1[O-].O=C(O)c1ccccc1[O-].[Zn+2] [Zn bis-salycilate] | >4000 | >4000 |  | >4000 |  |  |  | 
O.O=C(O)CC(O)C(=O)[O-].O=C(O)CC(O)C(=O)[O-].[Cu+2] (stereo not shown) [Cu(H2O) bis-malate] | 210 | 120 |  | 50 |  | 88 |  | 
CCCC(=O)[O-].CCCC(=O)[O-].O.[Zn+2] [Zn(H2O) bis-butyrate] | 110 | 110 |  |  |  |  |  | 
NC(=O)CC(N)C(=O)[O][Cu]([NH3+])([NH3+])[O]C(=O)C(N)CC(N)=O (stereo not shown) [Cu diammine bis-asparaginate] | 2050 | 1025 | 16 | 32 | 1025 |  |  | 
Cu diaminonitrolo triacetic acid |  |  |  | 120 |  | 200 |  | 
N.N.NC(CCC(=O)O)C(=O)[O-].NC(CCC(=O)O)C(=O)[O-].[Cu+2] (stereo not shown) [Cu diammine bis-glutamate] |  |  | 24 | 97 | 387 |  |  | 
O=C(O)CN1CCN(CC(=O)O)CC(=O)[O][Cu][O]C(=O)C1 [Cu ethylenediamine tetraacetic acid] |  |  |  | 160 |  | 320 |  | 
Zn malate [Zn(H2O)-bis-malate] | 120 | 90 | 180 | 360 | 160 | 4400 | 600 | 500
Cu diammine asparaginate | 620 | 620 | 20 | 38 | 620 |  |  | 
O=C(O)CC(O)C(=O)[O-].O=C(O)CC(O)C(=O)[O-].[Zn+2] (stereo not shown) [Zn bis-malate] | 360 | 280 |  |  |  |  | 600 | 600
N.N.NC(CC(=O)O)C(=O)[O-].NC(CC(=O)O)C(=O)[O-].[Zn+2] (stereo not shown) [Zn diammine bis-aspartate] | 247 | 123 |  |  |  |  |  | 
N.N.NC(CCC(=O)O)C(=O)[O-].NC(CCC(=O)O)C(=O)[O-].[Zn+2] (stereo not shown) [Zn diammine bis-glutamate] |  |  | 21 | 334 | 42 |  |  | 
NC(Cc1cnc[nH]1)C(=O)[O-].NC(Cc1cnc[nH]1)C(=O)[O-].[Zn+2] (stereo not shown) [Zn bis-histidinate] | >4000 | >4000 | 4 | 650 | >4000 |  |  | 
Cu nitrolo triacetic acid |  |  |  | >4000 |  | 450 |  | 
C[C@H](N)C(=O)[O-].C[C@H](N)C(=O)[O-].O.[Zn+2] [Zn(H2O) bis-alaninate] | 110 | 100 |  | >4000 |  | >4000 |  | 
CCCCC(=O)[O-].CCCCC(=O)[O-].O.[Zn+2] [Zn(H2O) bis-valerianate] | 120 | 120 |  |  |  |  |  | 
Zn diammine asparaginate |  |  | 23 | 369 | 46 |  |  | 
N[C@@H](CC(=O)[O-])C(=O)[O-].[Zn+2] [Zn mono-aspartate] | 74 | 74 |  |  |  |  |  | 
Zn(H2O) bis-glutamate |  |  | 10 | 331 | 21 |  |  | 
Zn diammine bis-histidinate | >4000 | >4000 | 12 | 1950 | >4000 |  |  | 
O=C([O-])CN(CCN(CC(=O)O)CC(=O)O)CC(=O)[O-].[Zn+2] [Zn ethylenediamine-tetraacetic acid] |  |  |  | 1000 |  | 450 |  | 
Zn diammine bis-asparaginate |  |  | 15 | 494 | 62 |  |  | 

Molecule | Minimal inhibitory concentration (MIC) (Salmonella enterica) [ppm] | Minimal inhibitory concentration (MIC) (Escherichia coli) [ppm] | Minimal inhibitory concentration (MIC) (Streptococcus agalactiae) [ppm] | Minimal inhibitory concentration (MIC) (Clostridium perfringens) [ppm] | Minimal inhibitory concentration (MIC) (Staphylococcus aureus) [ppm] | Minimal inhibitory concentration (MIC) [1] [ppm] | Minimal inhibitory concentration (MIC) (Saccharomyces cerevisiae) [ppm] | Minimal inhibitory concentration (MIC) (LACTIC ACID PRODUCERS) [ppm]
Zn diammine glutamate |  | 167 | 15 | 245 | 61 |  |  | 
Zn diaminonitrolo triacetic acid |  |  |  | 400 |  | 600 |  | 
Zn(H2O) tri-glutamate |  | 70 | 17 | 281 | 35 |  |  | 
Zn(H2O) tri-aspartate | 70 | 75 |  |  |  |  |  | 
O=C([O-])CN(CC(=O)[O-])CC(=O)O.[Zn+2] [Zn nitrolotriacetate] | 40 | 40 |  |  |  |  |  | 
Zn diammine tri-asparaginate |  |  | 14 | 456 | 114 |  |  | 
Zn(H2O) bis-aspartate |  | 103 |  |  |  |  |  | 
Zn diammine citrate | 98 | 48 | 49 |  | 49 |  |  | 
NC(=O)C[C@H](N)C(=O)[O-].NC(=O)C[C@H](N)C(=O)[O-].[Zn+2] [Zn bis-asparaginate] |  |  | 51 | 412 | 26 |  |  | 
Zn diammine tri-aspartate | 228 | 114 |  |  |  |  |  | 
Zn triammine tri-glutamate |  |  | 15 | 469 | 58 |  |  | 
CCC(=O)[O-].CCC(=O)[O-].O.[Zn+2] [Zn(H2O) bis-propionate] | 160 | 160 |  |  |  |  |  | 
Zn (H2O)2-ethylenediamine tetraacetic acid |  |  |  | 400 |  | 320 |  | 
O=C([O-])c1ccccc1.O=C([O-])c1ccccc1.[Zn+2] [Zn bis-benzoate] | >4000 | >4000 |  | >4000 |  |  |  | 
Zn tri-asparaginate |  |  | 19 | 450 | 18 |  |  | 
Cu diammine tri-glutamate |  |  | 8 | 30 | 487 |  |  | 
Cu diammine tri-asparaginate | >4000 | 1400 | 43 | 44 | 1400 |  |  | 
Zn(NH4)4(glycine)2 [Zn tetraammine bis-glycinate] | 140 | 140 |  |  |  |  |  | 
[NH3+][Cu]([NH3+])([O]C(=O)C(O)CC(=O)O)[O]C(=O)C(O)CC(=O)O (stereo not shown) [Cu diammine bis-malate] |  | 262 | 131 | 65 | 262 | 143 |  | 
Cu diammine glutamate |  | 688 | 11 | 43 |  |  |  | 
[NH2][Zn]1([NH2])[O]C(=O)CN(CC(=O)O)CCN(CC(=O)O)CC(=O)[O]1 [Zn diamino ethylenediamine tetraacetic acid] |  |  |  | 100 |  | >4000 |  | 
O.O.O=C([O-])CN(CCN(CC(=O)[O-])CC(=O)O)CC(=O)O.[Cu+2] [Cu(H2O)2-ethylenediamine tetraacetic acid] |  |  |  | 60 |  | 100 |  | 
NC(CCC(=O)[O-])C(=O)[O-].[Zn+2] (stereo not shown) [Zn mono-glutamate] |  | 70 | 18 | 475 | 36 |  |  | 
